# Assay results: article PMC3685217, “Activation of IP3 receptors requires an endogenous 1-8-14 calmodulin-binding motif” (Biochemical Journal, 2012)
# Where “and” joins values, the source holds several entries; their conditions need not be identical. Equal entries are not always repeated.
# Experiments:
# rat IP3R1 [1] = target: T1, rat IP3R1 (Rattus norvegicus, UniProt P29994); assay: IP3-evoked Ca2+ release from the intracellular stores of permeabilized DT40-IP3R1 cells; assay type: cell-based
# T1 construct: expressed in transfected cells; host or cells: DT40 cells (chicken B cells, all endogenous IP3R genes disrupted) stably expressing rat IP3R1
# T1 sequence (P29994 1-2735 isoform P29994-2): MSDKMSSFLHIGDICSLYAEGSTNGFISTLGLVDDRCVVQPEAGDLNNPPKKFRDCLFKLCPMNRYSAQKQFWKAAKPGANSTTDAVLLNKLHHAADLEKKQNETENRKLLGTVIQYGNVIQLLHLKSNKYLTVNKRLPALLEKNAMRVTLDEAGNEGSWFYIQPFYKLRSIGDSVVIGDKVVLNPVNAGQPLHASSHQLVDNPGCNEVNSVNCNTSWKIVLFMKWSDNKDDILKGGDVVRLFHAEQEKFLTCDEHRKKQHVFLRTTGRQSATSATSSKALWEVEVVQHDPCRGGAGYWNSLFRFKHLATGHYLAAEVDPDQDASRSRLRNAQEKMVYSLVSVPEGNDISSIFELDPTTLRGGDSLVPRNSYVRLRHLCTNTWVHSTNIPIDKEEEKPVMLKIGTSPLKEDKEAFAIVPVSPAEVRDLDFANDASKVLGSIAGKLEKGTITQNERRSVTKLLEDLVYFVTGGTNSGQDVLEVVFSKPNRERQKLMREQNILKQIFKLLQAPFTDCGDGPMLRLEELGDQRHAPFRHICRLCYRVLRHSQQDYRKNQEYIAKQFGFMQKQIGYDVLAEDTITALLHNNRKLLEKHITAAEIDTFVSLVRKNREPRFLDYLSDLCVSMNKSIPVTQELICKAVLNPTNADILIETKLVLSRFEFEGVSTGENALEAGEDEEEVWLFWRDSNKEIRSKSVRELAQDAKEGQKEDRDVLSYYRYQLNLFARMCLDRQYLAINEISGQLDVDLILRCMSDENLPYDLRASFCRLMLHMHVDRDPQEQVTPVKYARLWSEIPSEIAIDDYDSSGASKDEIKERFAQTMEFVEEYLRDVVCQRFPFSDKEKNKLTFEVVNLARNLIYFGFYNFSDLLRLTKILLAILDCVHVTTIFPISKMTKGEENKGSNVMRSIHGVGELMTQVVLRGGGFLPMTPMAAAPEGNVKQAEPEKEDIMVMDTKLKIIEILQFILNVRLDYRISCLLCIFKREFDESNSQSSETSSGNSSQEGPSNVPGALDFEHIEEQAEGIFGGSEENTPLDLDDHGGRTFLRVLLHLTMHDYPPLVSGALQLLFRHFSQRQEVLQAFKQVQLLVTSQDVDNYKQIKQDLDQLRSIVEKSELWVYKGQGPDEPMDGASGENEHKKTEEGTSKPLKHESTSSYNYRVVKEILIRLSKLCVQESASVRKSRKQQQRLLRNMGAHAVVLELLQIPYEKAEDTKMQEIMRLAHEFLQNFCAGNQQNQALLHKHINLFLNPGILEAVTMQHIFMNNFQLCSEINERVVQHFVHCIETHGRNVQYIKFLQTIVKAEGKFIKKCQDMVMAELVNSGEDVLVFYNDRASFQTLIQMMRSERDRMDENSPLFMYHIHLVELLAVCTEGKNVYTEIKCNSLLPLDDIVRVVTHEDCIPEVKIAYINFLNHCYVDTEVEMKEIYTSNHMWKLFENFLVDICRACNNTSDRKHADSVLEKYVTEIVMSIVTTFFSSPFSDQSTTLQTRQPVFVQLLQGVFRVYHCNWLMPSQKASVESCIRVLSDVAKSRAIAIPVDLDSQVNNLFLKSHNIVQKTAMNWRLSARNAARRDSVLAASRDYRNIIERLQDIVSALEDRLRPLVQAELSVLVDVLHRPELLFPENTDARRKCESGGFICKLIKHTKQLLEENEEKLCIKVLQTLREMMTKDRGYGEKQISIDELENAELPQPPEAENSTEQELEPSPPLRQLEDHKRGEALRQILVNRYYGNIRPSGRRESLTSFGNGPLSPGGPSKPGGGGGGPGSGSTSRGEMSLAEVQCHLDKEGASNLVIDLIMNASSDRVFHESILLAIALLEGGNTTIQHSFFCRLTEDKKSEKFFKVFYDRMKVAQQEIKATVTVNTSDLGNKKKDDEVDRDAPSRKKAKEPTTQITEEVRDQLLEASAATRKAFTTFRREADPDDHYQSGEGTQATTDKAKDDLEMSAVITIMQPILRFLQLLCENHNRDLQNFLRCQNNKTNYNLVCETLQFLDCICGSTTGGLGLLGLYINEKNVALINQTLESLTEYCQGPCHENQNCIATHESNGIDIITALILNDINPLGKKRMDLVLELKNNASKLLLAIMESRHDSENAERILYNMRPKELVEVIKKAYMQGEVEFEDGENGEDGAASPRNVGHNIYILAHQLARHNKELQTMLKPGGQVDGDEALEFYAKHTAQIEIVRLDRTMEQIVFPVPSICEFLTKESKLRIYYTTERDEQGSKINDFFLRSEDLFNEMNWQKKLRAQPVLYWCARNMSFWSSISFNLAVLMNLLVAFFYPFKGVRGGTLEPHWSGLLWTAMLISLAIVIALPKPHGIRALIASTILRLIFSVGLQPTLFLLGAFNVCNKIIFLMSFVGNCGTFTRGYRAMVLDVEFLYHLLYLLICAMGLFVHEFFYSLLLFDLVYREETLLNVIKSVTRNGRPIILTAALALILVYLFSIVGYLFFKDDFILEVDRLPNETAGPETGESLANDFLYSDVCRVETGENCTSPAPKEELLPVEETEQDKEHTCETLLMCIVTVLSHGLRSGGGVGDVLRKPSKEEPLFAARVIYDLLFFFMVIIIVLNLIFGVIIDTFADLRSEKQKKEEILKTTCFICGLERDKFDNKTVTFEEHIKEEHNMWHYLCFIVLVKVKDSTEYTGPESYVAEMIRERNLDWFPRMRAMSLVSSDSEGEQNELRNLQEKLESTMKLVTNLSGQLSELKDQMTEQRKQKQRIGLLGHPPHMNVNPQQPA
# Protocol: The free Ca^2+ concentration of the intracellular stores of permeabilized cells was measured using a low-affinity Ca^2+ indicator trapped within the endoplasmic reticulum as reported previously. Briefly, DT40 cells (4×10^7 cells/ml) were suspended in HBS (Hepes-buffered saline: 135 mM NaCl, 5.9 mM KCl, 11.6 mM Hepes, 1.5 mM CaCl2, 11.5 mM glucose and 1.2 mM MgCl2, pH 7.3) containing 1 mg/ml BSA, 0.4 mg/ml Pluronic F127 and 20 μM mag-fluo-4/AM (Invitrogen). After 1 h at 20°C in the dark with gentle shaking, cells were centrifuged at 650 g for 2 min and resuspended to 10^7 cells/ml in Ca^2+-free CLM (cytosol-like medium) (20 mM NaCl, 140 mM KCl, 1 mM EGTA, 20 mM Pipes and 2 mM MgCl2, pH 7.0) containing 20 μg/ml saponin. After incubation at 37°C with gentle shaking for 4 min, permeabilized cells were centrifuged at 650 g for 2 min and resuspended in Mg^2+-free CLM, supplemented with CaCl2 to give a final free Ca^2+ concentration of 220 nM. The free Ca^2+ concentration of CLM was calculated using the MaxChelator program (http://maxchelator.stanford.edu) and then measured using fluo-3 or fura-2. Cells were then washed, resuspended in Mg^2+-free CLM containing 10 μM FCCP (carbonyl cyanide p-trifluoromethoxyphenylhydrazone) to inhibit mitochondria, and distributed into a 96-well plate (10^6 cells in 50 μl of CLM/well). After centrifugation, fluorescence from the luminal indicator was recorded using a FlexStation II platereader (Molecular Devices) equipped to allow automated additions. In all experiments, the intracellular stores were allowed to load to steady-state with Ca^2+ after addition of MgATP. IP3 was then added with thapsigargin (1 μM, to inhibit Ca^2+ reuptake). The Ca^2+ release evoked by IP3 is expressed as a fraction of the ATP-dependent Ca^2+ uptake.
# rat IP3R1 [2] = target: T1, rat IP3R1; assay: Patch-clamp recording from patches excised from the outer nuclear envelope of DT40 cells; assay type: biochemical; conditions: IP3 10 μM
# Protocol: Currents were recorded from patches excised from the outer nuclear envelope of DT40 cells expressing recombinant rat IP3R1 using symmetrical caesium methanesulfonate (140 mM) as the charge-carrier. The composition of recording solutions and methods of analysis were otherwise as described previously.
# [3] = target: T2, NT (residues 1–604) of rat IP3R1 (Rattus norvegicus, UniProt P29994, DEL318-332); assay: [3H]IP3 equilibrium-competition binding to NT
# T2 construct: The NT (residues 1–604) and IBC (residues 224–604) of rat IP3R1; His6 (N, cleaved yes); made in house; host or cells: Escherichia coli BL21(DE3)
# T2 sequence (P29994 1-589 isoform P29994-2 limits assumed, stated change not applied): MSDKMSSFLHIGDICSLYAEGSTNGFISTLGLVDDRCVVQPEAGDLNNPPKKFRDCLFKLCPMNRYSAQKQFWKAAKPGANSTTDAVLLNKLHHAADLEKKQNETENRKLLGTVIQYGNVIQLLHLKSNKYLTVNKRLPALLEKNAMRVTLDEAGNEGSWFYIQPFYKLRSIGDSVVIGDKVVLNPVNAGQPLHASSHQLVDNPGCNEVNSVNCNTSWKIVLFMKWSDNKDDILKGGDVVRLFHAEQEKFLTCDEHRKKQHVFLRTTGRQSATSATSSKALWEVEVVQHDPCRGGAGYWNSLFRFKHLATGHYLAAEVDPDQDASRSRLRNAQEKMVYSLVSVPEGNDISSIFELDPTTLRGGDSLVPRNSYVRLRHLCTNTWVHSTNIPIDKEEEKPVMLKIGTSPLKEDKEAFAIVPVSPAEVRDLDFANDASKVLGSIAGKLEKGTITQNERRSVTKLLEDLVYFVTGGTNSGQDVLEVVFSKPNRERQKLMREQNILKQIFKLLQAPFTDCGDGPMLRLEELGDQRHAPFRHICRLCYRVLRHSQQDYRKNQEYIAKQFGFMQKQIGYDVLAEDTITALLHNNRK
# Excerpt: (§1) The NT (residues 1–604) and IBC (residues 224–604) of rat IP3R1 were amplified by PCR from the full-length receptor clone lacking the SI splice region (GenBank® accession number GQ233032.1) as described previously. The fragments were ligated into pTrcHis A (Invitrogen) to allow expression of N-terminally His6-tagged proteins. Mutagenesis of the 1-8-14 motif within the NT used the QuikChange® II XL site-directed mutagenesis kit (Stratagene) for single mutants (F53E, L60E, Y66E and K52E) and the QuikChange® multi-site-directed mutagenesis kit for the double mutant (F53E and Y66E). The primers used are listed in Supplementary Table S2 (at http://www.BiochemJ.org/bj/449/bj4490039add.htm). The same primers and conditions were used for mutagenesis of full-length IP3R using IP3R1 in the pENTR 1A vector. Full-length constructs were subcloned into pcDNA3.2/V5-DEST for expression in DT40 cells. The complete sequence of every mutant construct was verified by sequencing.
# (§2) The pTrcHis constructs were used for expression of N-terminally His6-tagged proteins in Escherichia coli strain BL21(DE3) cells. Before use for [^3H]IP3 binding, proteins were cleaved from the His6 tags using biotinylated thrombin (Novagen) at the engineered thrombin-cleavage site. Complete cleavage was verified by Western blotting using an anti-His6 antibody. The proteins were used for [^3H]IP3 binding without further purification.
# (§3) Equilibrium-competition binding assays were performed at 4°C for 5 min in CLM (500 μl) with a free Ca^2+ concentration of 220 nM and containing [^3H]IP3 (0.75–1.5 nM), bacterial lysate (10 μg of protein for IBC and 100 μg of protein for NT) or cerebellar membranes (50 μg of protein) and competing ligands. Non-specific binding was defined by addition of 10 μM IP3. Bound and free [^3H]IP3 were separated by centrifugation at 20000 g for 5 min, after addition of poly(ethylene glycol) (15% final concentration) and γ-globulin (0.75 mg) for soluble proteins. Results were analysed by fitting to a Hill equation (using GraphPad Prism) from which the IC50 (half-maximal inhibitory concentration) and thereby the Kd (equilibrium dissociation constant) were calculated.
# [4] = target: T3, IBC (residues 224–604) of rat IP3R1 (Rattus norvegicus, UniProt P29994, DEL318-332); assay: [3H]IP3 equilibrium-competition binding to IBC
# T3 construct: IBC (residues 224–604) of rat IP3R1 were amplified by PCR; His6 (N, cleaved yes); made in house; host or cells: Escherichia coli BL21(DE3)
# T3 sequence (P29994 224-589 isoform P29994-2 limits assumed, stated change not applied): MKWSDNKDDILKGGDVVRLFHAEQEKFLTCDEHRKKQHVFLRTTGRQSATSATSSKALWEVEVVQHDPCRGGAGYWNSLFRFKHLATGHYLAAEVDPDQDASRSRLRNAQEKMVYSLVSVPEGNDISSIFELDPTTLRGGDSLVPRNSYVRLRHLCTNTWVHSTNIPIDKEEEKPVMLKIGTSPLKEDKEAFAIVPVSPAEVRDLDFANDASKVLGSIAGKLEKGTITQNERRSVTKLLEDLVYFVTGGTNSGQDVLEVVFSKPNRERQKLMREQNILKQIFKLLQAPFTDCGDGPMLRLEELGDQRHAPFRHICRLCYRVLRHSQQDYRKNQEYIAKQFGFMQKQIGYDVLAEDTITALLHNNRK
# Excerpt: as §1, §2, §3
# full-length IP3R1 = target: T4, full-length IP3R1 (Rattus norvegicus, UniProt P29994); assay: [3H]IP3 binding to membranes from rat cerebellum; conditions: 3 mM peptide, [3H]IP3 1.5 nM
# T4 construct: membranes from rat cerebellum (full-length IP3R, FL); from tissue; host or cells: rat cerebellum membranes
# Protocol: as §3
# Figure 4 1-8-14 peptide directly stimulates IP3 binding to the NT of IP3R (A) Specific equilibrium binding of [^3H]IP3 (1.5 nM) to membranes from rat cerebellum (full-length IP3R, FL) or to isolated NT or IBC, alone or in the presence of 3 mM of the indicated peptide. *P<0.05 and **P<0.01 relative to control; comparisons were performed on the raw data. (B) Concentration-dependent effects of 1-8-14 peptide on specific [^3H]IP3 binding to NT in CLM with 220 nM free Ca^2+ concentration, plotted as the increase in specific [^3H]IP3 binding as a percentage of that evoked by the maximal concentration of peptide. […]
# [5] = target: T5, NT of rat IP3R1 with F53E mutation (Rattus norvegicus, UniProt P29994, DEL318-332/F53E); assay: [3H]IP3 equilibrium-competition binding to NT F53E; conditions: fragment NT F53E
# T5 construct: The NT (residues 1–604) and IBC (residues 224–604) of rat IP3R1; His6 (N, cleaved yes); made in house; host or cells: Escherichia coli BL21(DE3)
# T5 sequence (P29994 1-589 isoform P29994-2 F53E limits assumed): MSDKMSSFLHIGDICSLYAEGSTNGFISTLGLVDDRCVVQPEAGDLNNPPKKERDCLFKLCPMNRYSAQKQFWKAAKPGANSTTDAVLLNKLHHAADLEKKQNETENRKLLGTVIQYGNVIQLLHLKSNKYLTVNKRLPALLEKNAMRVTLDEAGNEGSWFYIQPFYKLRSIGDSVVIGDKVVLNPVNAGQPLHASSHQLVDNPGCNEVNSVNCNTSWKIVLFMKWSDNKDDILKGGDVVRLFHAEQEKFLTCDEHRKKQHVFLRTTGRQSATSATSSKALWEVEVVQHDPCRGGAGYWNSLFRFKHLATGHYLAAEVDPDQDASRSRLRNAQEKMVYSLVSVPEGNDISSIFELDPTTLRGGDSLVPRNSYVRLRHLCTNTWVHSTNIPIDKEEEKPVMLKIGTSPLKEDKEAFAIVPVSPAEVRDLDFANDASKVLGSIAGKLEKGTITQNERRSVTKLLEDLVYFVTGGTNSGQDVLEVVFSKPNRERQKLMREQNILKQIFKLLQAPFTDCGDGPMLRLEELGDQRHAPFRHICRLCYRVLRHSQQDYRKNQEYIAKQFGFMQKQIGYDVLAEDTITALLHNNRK
# Excerpt: as §1, §2, §3
# [6] = target: T6, NT of rat IP3R1 with L60E mutation (Rattus norvegicus, UniProt P29994, DEL318-332/L60E); assay: [3H]IP3 equilibrium-competition binding to NT L60E; conditions: fragment NT L60E
# T6 construct: The NT (residues 1–604) and IBC (residues 224–604) of rat IP3R1; His6 (N, cleaved yes); made in house; host or cells: Escherichia coli BL21(DE3)
# Excerpt: as §1, §2, §3
# [7] = target: T7, NT of rat IP3R1 with Y66E mutation (Rattus norvegicus, UniProt P29994, DEL318-332/Y66E); assay: [3H]IP3 equilibrium-competition binding to NT Y66E; conditions: fragment NT Y66E
# T7 construct: The NT (residues 1–604) and IBC (residues 224–604) of rat IP3R1; His6 (N, cleaved yes); made in house; host or cells: Escherichia coli BL21(DE3)
# T7 sequence (P29994 1-589 isoform P29994-2 Y66E limits assumed): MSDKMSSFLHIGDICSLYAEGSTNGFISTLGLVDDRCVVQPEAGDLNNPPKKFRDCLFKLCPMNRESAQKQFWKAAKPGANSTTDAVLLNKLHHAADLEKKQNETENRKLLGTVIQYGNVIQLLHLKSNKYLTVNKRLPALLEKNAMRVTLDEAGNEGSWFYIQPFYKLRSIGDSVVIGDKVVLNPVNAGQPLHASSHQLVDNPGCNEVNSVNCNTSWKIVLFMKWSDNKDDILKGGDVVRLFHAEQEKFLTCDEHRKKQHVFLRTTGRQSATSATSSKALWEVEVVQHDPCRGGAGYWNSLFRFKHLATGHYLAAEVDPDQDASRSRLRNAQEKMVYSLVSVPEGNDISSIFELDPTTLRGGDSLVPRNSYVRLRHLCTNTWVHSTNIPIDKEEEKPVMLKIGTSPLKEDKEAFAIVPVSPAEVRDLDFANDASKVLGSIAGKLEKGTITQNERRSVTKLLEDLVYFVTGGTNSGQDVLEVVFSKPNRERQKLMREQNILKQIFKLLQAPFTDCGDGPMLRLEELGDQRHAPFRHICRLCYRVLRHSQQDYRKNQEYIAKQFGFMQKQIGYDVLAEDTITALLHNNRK
# Excerpt: as §1, §2, §3
substance,measurement,setting,value
"Ac-KKFRDALFKLAPMNRY-NH2 [1-8-14 peptide, Ac-KKFRDALFKLAPMNRY-NH2]",dependence of inhibition on cytosolic free Ca2+ concentration,"rat IP3R1 [1]; 1 mM peptide, maximally effective IP3",enhanced at elevated cytosolic Ca^2+ concentrations
same,reversibility of inhibition of IP3-evoked Ca2+ release,"rat IP3R1 [1]; 3 mM peptide 10–20 min, washed, rechallenged",fully reversible
same,effect on the sensitivity (EC50) to IP3,"rat IP3R1 [1]; 3 mM peptide, pre-incubation 2.5 min",without affecting
same,inhibition at 3000 µM,"rat IP3R1 [1]; 3 mM peptide, similar for all IP3 concentrations, read-out: percentage inhibition of IP3-evoked Ca2+ release",~75%
same,Emax,"rat IP3R1 [1]; maximally effective concentration of the peptide, read-out: reduction of the maximal response to IP3",77 ± 7%
same,effect on Ca2+ uptake,rat IP3R1 [1]; permeabilized DT40-IP3R1 cells,without affecting
same,IC50,"rat IP3R1 [1]; permeabilized DT40-IP3R1 cells pre-incubated 10–20 min with peptide, IP3 10 μM, 220 nM free Ca2+, read-out: IC50 for inhibition of IP3-evoked Ca2+ release",767 µM
same,decrease in overall channel activity (NPo),"rat IP3R1 [2]; 3 mM peptide, +40 mV",~ 10 fold
same,decrease in the mean channel open time (τo),"rat IP3R1 [2]; 3 mM peptide, +40 mV",50%
same,single-channel conductance (γCs),"rat IP3R1 [2]; peptide-treated IP3Rs (3 mM), n=3, control 214±6 pS",209±6 pS
same,EC50,"[3]; CLM with 220 nM free Ca2+, read-out: EC50 for stimulating [3H]IP3 binding to the NT",615 µM
same,effect on IP3 binding to the IBC,"[4]; 3 mM peptide, [3H]IP3 1.5 nM",unaffected
same,effect on specific binding of [3H]IP3 to full-length IP3R1,full-length IP3R1,increased
heparin,"Affinity relative to NT (heparin), Kd^NT/Kd^mutant",[3]; fragment NT,1 fold
same,"Kd, ng/ml (heparin)",[3]; fragment NT,239 ng/mL
same,"pKd, /g/ml heparin","[3]; fragment NT, mean±S.E.M., n≥3",6.62±0.06 /g/ml
same,"Affinity relative to NT (heparin), Kd^NT/Kd^mutant",[5],2 fold
same,"Kd, ng/ml (heparin)",[5],120 ng/mL
same,"pKd, /g/ml heparin","[5]; mean±S.E.M., n≥3",6.92±0.06 /g/ml
same,"Affinity relative to NT (heparin), Kd^NT/Kd^mutant",[6],1.2 fold
same,"Kd, ng/ml (heparin)",[6],200 ng/mL
same,"pKd, /g/ml heparin","[6]; mean±S.E.M., n≥3",6.70±0.04 /g/ml
same,"Affinity relative to NT (heparin), Kd^NT/Kd^mutant",[7],1.4 fold
same,"Kd, ng/ml (heparin)",[7],171 ng/mL
same,"pKd, /g/ml heparin","[7]; mean±S.E.M., n≥3",6.77±0.03 /g/ml
same,"Kd, ng/ml (heparin)",[4]; fragment IBC,117 ng/mL
same,"Affinity relative to NT (heparin), Kd^NT/Kd^mutant",[4]; fragment IBC (SD removed),2 fold and 2.0 fold
same,"pKd, /g/ml heparin","[4]; fragment IBC, mean±S.E.M., n≥3",6.93±0.04 /g/ml
